From ChEMBL document CHEMBL3997804, “Evaluation of a series of 2-napthamide derivatives as inhibitors of the drug efflux pump AcrB for the reversal of antimicrobial resistance” (Bioorg Med Chem Lett, 2017)
Active and inactive are the calls of the source. The rule behind the calls is not given here.

How the values were obtained:
[1] = system: Escherichia coli; experiment: Disruption of inner membrane potential in drug resistant Escherichia coli BW25113 at 512 ug/ml incubated for 10 mins measured for 60 secs by DiOC2(3) dye based fluorimetric method; type: functional
[2] = system: Escherichia coli BW25113; experiment: Inhibition of AcrB in wild-type drug resistant Escherichia coli BW25113 assessed as potentiation of erythromycin-induced antibacterial activity by measuring FICI at 128 to 512 ug/ml after 18 hrs by checkerboard method
[3] = system: Escherichia coli BW25113; experiment: Inhibition of AcrB in wild-type drug resistant Escherichia coli BW25113 assessed as potentiation of chloramphenicol-induced antibacterial activity by measuring FICI at 128 to 512 ug/ml after 18 hrs by checkerboard method
[4] = system: Escherichia coli; experiment: Potentiation of tetraphenyl phosphonium chloride-induced antibacterial activity against AcrB-deficient Escherichia coli BW25113 assessed as tetraphenyl phosphonium chloride MIC at 256 ug/ml after 18 hrs by checkerboard method (reference value: 64 ug/ml); type: functional; conditions: BW25113, 18 h
[5] = system: Escherichia coli BW25113; experiment: Inhibition of AcrB in wild-type drug resistant Escherichia coli BW25113 assessed as reduction in nile red efflux at 50 uM pretreated for 15 mins followed by nile red addition measured after 3 hrs for 200 secs in presence of glucose by fluorimetric method
[6] = system: Escherichia coli; experiment: Potentiation of tetraphenyl phosphonium chloride-induced antibacterial activity against AcrB-deficient Escherichia coli BW25113 assessed as tetraphenyl phosphonium chloride MIC at 128 ug/ml after 18 hrs by checkerboard method (reference value: 64 ug/ml); type: functional; conditions: BW25113, 18 h
[7] = system: Escherichia coli; experiment: Effect on rifampicin-induced antibacterial activity against wild-type drug resistant Escherichia coli BW25113 assessed as rifampicin MIC at 512 ug/ml after 18 hrs by checkerboard method (reference value: 16 ug/ml); type: functional; conditions: BW25113, 18 h
[8] = system: Escherichia coli; experiment: Growth inhibition of wild-type drug-resistant Escherichia coli BW25113 after 18 hrs by resazurin dye based broth microdilution method
[9] = system: Escherichia coli BW25113; experiment: Inhibition of AcrB in wild-type drug resistant Escherichia coli BW25113 assessed as potentiation of tetraphenyl phosphonium chloride-induced antibacterial activity by measuring FICI at 128 to 512 ug/ml after 18 hrs by checkerboard method
[10] = system: Escherichia coli BW25113; experiment: Inhibition of AcrB in wild-type drug resistant Escherichia coli BW25113 assessed as potentiation of chloramphenicol-induced antibacterial activity by measuring chloramphenicol MIC at 512 ug/ml after 18 hrs by checkerboard method (reference value: 8 ug/ml)
[11] = system: Escherichia coli; experiment: Potentiation of erythromycin-induced antibacterial activity against AcrB-deficient Escherichia coli BW25113 assessed as erythromycin MIC at 128 ug/ml after 18 hrs by checkerboard method (reference value: 16 ug/ml); type: functional; conditions: BW25113, 18 h
[12] = system: Escherichia coli BW25113; experiment: Inhibition of AcrB in wild-type drug resistant Escherichia coli BW25113 assessed as potentiation of erythromycin-induced antibacterial activity by measuring erythromycin MIC at 128 ug/ml after 18 hrs by checkerboard method (reference value: 128 ug/ml)
[13] = system: Escherichia coli; experiment: Potentiation of chloramphenicol-induced antibacterial activity against AcrB-deficient Escherichia coli BW25113 assessed as chloramphenicol MIC at 256 ug/ml after 18 hrs by checkerboard method (reference value: 2 ug/ml); type: functional; conditions: BW25113, 18 h
[14] = system: Escherichia coli BW25113; experiment: Inhibition of AcrB in wild-type drug resistant Escherichia coli BW25113 assessed as potentiation of erythromycin-induced antibacterial activity by measuring erythromycin MIC at 256 ug/ml after 18 hrs by checkerboard method (reference value: 128 ug/ml)
[15] = system: Escherichia coli BW25113; experiment: Inhibition of AcrB in wild-type drug resistant Escherichia coli BW25113 assessed as potentiation of chloramphenicol-induced antibacterial activity by measuring chloramphenicol MIC at 256 ug/ml after 18 hrs by checkerboard method (reference value: 8 ug/ml)
[16] = system: Escherichia coli BW25113; experiment: Inhibition of AcrB in wild-type drug resistant Escherichia coli BW25113 assessed as potentiation of tetraphenyl phosphonium chloride-induced antibacterial activity by measuring tetraphenyl phosphonium chloride MIC at 512 ug/ml after 18 hrs by checkerboard method (reference value: 1024 ug/ml)
[17] = system: Escherichia coli; experiment: Potentiation of erythromycin-induced antibacterial activity against AcrB-deficient Escherichia coli BW25113 assessed as erythromycin MIC at 512 ug/ml after 18 hrs by checkerboard method (reference value: 16 ug/ml); type: functional; conditions: BW25113, 18 h
[18] = system: Escherichia coli; experiment: Effect on rifampicin-induced antibacterial activity against wild-type drug resistant Escherichia coli BW25113 assessed as rifampicin MIC at 128 ug/ml after 18 hrs by checkerboard method (reference value: 16 ug/ml); type: functional; conditions: BW25113, 18 h
[19] = system: Escherichia coli BW25113; experiment: Inhibition of AcrB in wild-type drug resistant Escherichia coli BW25113 assessed as potentiation of tetraphenyl phosphonium chloride-induced antibacterial activity by measuring tetraphenyl phosphonium chloride MIC at 256 ug/ml after 18 hrs by checkerboard method (reference value: 1024 ug/ml)
[20] = system: Escherichia coli; experiment: Potentiation of tetraphenyl phosphonium chloride-induced antibacterial activity against AcrB-deficient Escherichia coli BW25113 assessed as tetraphenyl phosphonium chloride MIC at 512 ug/ml after 18 hrs by checkerboard method (reference value: 64 ug/ml); type: functional; conditions: BW25113, 18 h
[21] = system: Escherichia coli; experiment: Potentiation of chloramphenicol-induced antibacterial activity against AcrB-deficient Escherichia coli BW25113 assessed as chloramphenicol MIC at 512 ug/ml after 18 hrs by checkerboard method (reference value: 2 ug/ml); type: functional; conditions: BW25113, 18 h
[22] = system: Escherichia coli BW25113; experiment: Inhibition of AcrB in drug resistant Escherichia coli BW25113 assessed as reduction in nile red efflux at 100 uM pretreated for 15 mins followed by nile red addition measured after 3 hrs for 200 secs in presence of glucose by fluorimetric method
[23] = system: Escherichia coli; experiment: Potentiation of erythromycin-induced antibacterial activity against AcrB-deficient Escherichia coli BW25113 assessed as erythromycin MIC at 256 ug/ml after 18 hrs by checkerboard method (reference value: 16 ug/ml); type: functional; conditions: BW25113, 18 h
[24] = system: Escherichia coli; experiment: Growth inhibition of drug-sensitive AcrB-deficient Escherichia coli BW25113 at 1024 ug/ml after 18 hrs by resazurin dye based broth microdilution method
[25] = system: Escherichia coli BW25113; experiment: Inhibition of […] in drug resistant Escherichia coli BW25113 assessed as increase in outer membrane permeability by measuring increase nitrocefin hydrolysis at 512 ug/ml measured over 30 mins in presence of CCCP by spectrophotometric method
[26] = system: HepG2; experiment: Cytotoxicity against human HepG2 cells at 512 to 1024 ug/ml measured every 60 mins for 20 hrs by RealTime-Glo MT cell viability assay; type: cell-based; conditions: hepg2, 20 h
[27] = system: Escherichia coli; experiment: Effect on rifampicin-induced antibacterial activity against AcrB-deficient Escherichia coli BW25113 assessed as rifampicin MIC at 128 ug/ml after 18 hrs by checkerboard method (reference value: 16 ug/ml); type: functional; conditions: BW25113, 18 h
[28] = system: HEK293; experiment: Cytotoxicity against HEK293 cells at 512 to 1024 ug/ml measured every 60 mins for 20 hrs by RealTime-Glo MT cell viability assay; type: cell-based; conditions: human, hek293, 20 h
[29] = system: Escherichia coli BW25113; experiment: Inhibition of AcrB in wild-type drug resistant Escherichia coli BW25113 assessed as potentiation of tetraphenyl phosphonium chloride-induced antibacterial activity by measuring tetraphenyl phosphonium chloride MIC at 128 ug/ml after 18 hrs by checkerboard method (reference value: 1024 ug/ml)
[30] = system: Escherichia coli BW25113; experiment: Inhibition of AcrB in wild-type drug resistant Escherichia coli BW25113 assessed as potentiation of erythromycin-induced antibacterial activity by measuring erythromycin MIC at 512 ug/ml after 18 hrs by checkerboard method (reference value: 128 ug/ml)
[31] = system: Escherichia coli; experiment: Potentiation of chloramphenicol-induced antibacterial activity against AcrB-deficient Escherichia coli BW25113 assessed as chloramphenicol MIC at 128 ug/ml after 18 hrs by checkerboard method (reference value: 2 ug/ml); type: functional; conditions: BW25113, 18 h
[32] = system: Escherichia coli; experiment: Effect on rifampicin-induced antibacterial activity against AcrB-deficient Escherichia coli BW25113 assessed as rifampicin MIC at 512 ug/ml after 18 hrs by checkerboard method (reference value: 16 ug/ml); type: functional; conditions: BW25113, 18 h
[33] = system: Escherichia coli; experiment: Effect on rifampicin-induced antibacterial activity against wild-type drug resistant Escherichia coli BW25113 assessed as rifampicin MIC at 256 ug/ml after 18 hrs by checkerboard method (reference value: 16 ug/ml); type: functional; conditions: BW25113, 18 h
[34] = system: Escherichia coli; experiment: Effect on rifampicin-induced antibacterial activity against AcrB-deficient Escherichia coli BW25113 assessed as rifampicin MIC at 256 ug/ml after 18 hrs by checkerboard method (reference value: 16 ug/ml); type: functional; conditions: BW25113, 18 h
[35] = system: Escherichia coli BW25113; experiment: Inhibition of AcrB in wild-type drug resistant Escherichia coli BW25113 assessed as potentiation of chloramphenicol-induced antibacterial activity by measuring chloramphenicol MIC at 128 ug/ml after 18 hrs by checkerboard method (reference value: 8 ug/ml)

## CC(C)CCOc1cc(C(N)=O)cc2ccccc12
[1]
  Activity: inactive
[2]
  fractional inhibitory concentration index (FICI): 0.25
[3]
  fractional inhibitory concentration index (FICI): 0.25
[4]
  MIC: 64 µg/mL
[5]
  inhibition: Active
[6]
  MIC: 64 µg/mL
[7]
  MIC: 16 µg/mL
[8]
  growth inhibition (GI): Non-Toxic
[9]
  fractional inhibitory concentration index (FICI): 0.25
[10]
  MIC: 2 µg/mL
[11]
  MIC: 16 µg/mL
[12]
  MIC: 128 µg/mL
[13]
  MIC: 2 µg/mL
[14]
  MIC: 64 µg/mL
[15]
  MIC: 4 µg/mL
[16]
  MIC: 128 µg/mL
[17]
  MIC: 16 µg/mL
[18]
  MIC: 16 µg/mL
[19]
  MIC: 512 µg/mL
[20]
  MIC: 64 µg/mL
[21]
  MIC: 2 µg/mL
[22]
  inhibition: Active
[23]
  MIC: 16 µg/mL
[24]
  growth inhibition (GI): Toxic
[25]
  inhibition: inactive
[26]
  Activity: Non-Toxic
[27]
  MIC: 16 µg/mL
[28]
  Activity: Non-Toxic
[29]
  MIC: 1020 µg/mL
[30]
  MIC: 16 µg/mL
[31]
  MIC: 2 µg/mL
[32]
  MIC: 16 µg/mL
[33]
  MIC: 16 µg/mL
[34]
  MIC: 16 µg/mL
[35]
  MIC: 8 µg/mL
